Results published in PubChem BioAssay (NCI).
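Method: 48-hour compound exposure of cells in 96-well plates, five concentrations, linear interpolation of endpoints. GI50 marks 50% less growth. TGI: concentration producing complete growth inhibition.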

Columns and labels:
Assay in all cases: inhibition of tumour cell growth, NCI panel, 48 h
[1] = test system: COLO 205 colon
[2] = test system: EKVX NSCLC
[3] = test system: HOP-92 NSCLC
[4] = test system: HS 578T breast
[5] = test system: MALME-3M melanoma
[6] = test system: MDA-MB-231 breast
[7] = test system: NCI-H226 lung
[8] = test system: NCI-H522 lung
[9] = test system: OVCAR-3 ovarian
[10] = test system: OVCAR-4 ovarian
[11] = test system: OVCAR-5 ovarian
[12] = test system: SF-295 CNS
[13] = test system: SK-MEL-2 melanoma
[14] = test system: SK-MEL-28 melanoma
[15] = test system: SK-OV-3 ovarian
[16] = test system: SNB-75 CNS
[17] = test system: T-47D breast
[18] = test system: TK-10 renal
[19] = test system: UACC-257 melanoma
[20] = test system: 786-0 renal
[21] = test system: A498 renal
[22] = test system: A549 NSCLC
[23] = test system: ACHN renal
[24] = test system: BT-549 breast
[25] = test system: CAKI-1 renal
[26] = test system: CCRF-CEM leukemia
[27] = test system: DU-145 prostate
[28] = test system: HCC-2998 colon
[29] = test system: HL-60(TB) leukemia
[30] = test system: HOP-62 NSCLC
[31] = test system: HT29 colon
[32] = test system: IGROV1 ovarian
[33] = test system: K-562 leukemia
[34] = test system: KM12 colon
[35] = test system: M14 melanoma
[36] = test system: NCI-H23 lung
[37] = test system: NCI-H460 lung
[38] = test system: NCI/ADR-RES ovarian
[39] = test system: RXF 393 renal
[40] = test system: SF-268 CNS
[41] = test system: SF-539 CNS
[42] = test system: SK-MEL-5 melanoma
[43] = test system: SN12C renal
[44] = test system: SNB-19 CNS
[45] = test system: SW-620 colon
[46] = test system: U251 CNS
[47] = test system: UACC-62 melanoma
[48] = test system: UO-31 renal

COc1cc(/C=C/C(=O)c2ccc(O)c(OC)c2)ccc1O
TGI [1]: 41.2 µM
TGI [2]: 41.6 µM
TGI [3]: 50.7 µM
TGI [4]: 60.3 µM
TGI [5]: 51.4 µM
TGI [6]: 79.4 µM
TGI [7]: 46.3 µM
TGI [8]: 32.3 µM
TGI [9]: 72 µM
TGI [10]: 71.4 µM
TGI [11]: 50.8 µM
TGI [12]: 49 µM
TGI [13]: 42.6 µM
TGI [14]: 36.5 µM
TGI [15]: 93.4 µM
TGI [16]: 77.5 µM
TGI [17]: 58.7 µM
TGI [18]: 87.9 µM
TGI [19]: 45.9 µM

C#CCOc1cccc(-c2ncc3cc(NC(=O)CCl)ccc3n2)c1
GI50 [20]: 2010 nM
TGI [20]: 3.59 µM
GI50 [21]: 13.2 µM
TGI [21]: 31 µM
GI50 [22]: 2110 nM
TGI [22]: 4.43 µM
GI50 [23]: 1720 nM
TGI [23]: 3.19 µM
GI50 [24]: 1470 nM
TGI [24]: 3.18 µM
GI50 [25]: 1880 nM
TGI [25]: 3.31 µM
GI50 [26]: 252 nM
TGI [26]: 994 nM
GI50 [27]: 1790 nM
TGI [27]: 3.19 µM
GI50 [28]: 1910 nM
TGI [28]: 3.4 µM
GI50 [29]: 2280 nM
TGI [29]: 8.02 µM
GI50 [30]: 2020 nM
TGI [30]: 3.81 µM
GI50 [31]: 2020 nM
TGI [31]: 3.99 µM
GI50 [32]: 1800 nM
TGI [32]: 4.01 µM
GI50 [33]: 561 nM
TGI [33]: > 100 µM
GI50 [34]: 1610 nM
TGI [34]: 3.11 µM
GI50 [35]: 1810 nM
TGI [35]: 4.54 µM
GI50 [5]: 1650 nM
TGI [5]: 3.29 µM
GI50 [7]: 2600 nM
TGI [7]: 8.17 µM
GI50 [36]: 1870 nM
TGI [36]: 4.71 µM
GI50 [37]: 2160 nM
TGI [37]: 4.83 µM
GI50 [8]: 1160 nM
TGI [8]: 2.51 µM
GI50 [38]: 3.07 µM
TGI [38]: > 100 µM
GI50 [9]: 1930 nM
TGI [9]: 3.79 µM
GI50 [39]: 1640 nM
TGI [39]: 3.09 µM
GI50 [40]: 2030 nM
TGI [40]: 5.25 µM
GI50 [12]: 3.65 µM
TGI [12]: 17 µM
GI50 [41]: 1510 nM
TGI [41]: 2920 nM
GI50 [13]: 1580 nM
TGI [13]: 3.63 µM
GI50 [14]: 1980 nM
TGI [14]: 3.66 µM
GI50 [42]: 1330 nM
TGI [42]: 2620 nM
GI50 [15]: 3.58 µM
TGI [15]: > 100 µM
GI50 [43]: 1440 nM
TGI [43]: 2930 nM
GI50 [44]: 1760 nM
TGI [44]: 3.45 µM
GI50 [16]: 2220 nM
TGI [16]: 15.4 µM
GI50 [45]: 1560 nM
TGI [45]: 3.25 µM
GI50 [18]: 2600 nM
TGI [18]: 4.85 µM
GI50 [46]: 1780 nM
TGI [46]: 3.23 µM
GI50 [19]: 2020 nM
TGI [19]: 3.96 µM
GI50 [47]: 1520 nM
TGI [47]: 3.36 µM
GI50 [48]: 1520 nM
TGI [48]: 2910 nM
